Measurements from publication PMC10784415 (Developmental dynamics : an official publication of the …, 2023).

Assay: Toxicokinetics of infigratinib in juvenile rat plasma after oral gavage
Format: in vivo, Crl:WI(Han) rat
Conditions: for RAUC: AUC vs first dosing day; for AUC(0-t): female, Crl:WI(Han), rat, plasma, po, 0.1 mg/kg/day
[1] = Female rats, 0.1 mg/kg/day oral, PND 7
[2] = Female rats, 0.1 mg/kg/day oral, PND 12
[3] = Female rats, 0.1 mg/kg/day oral, PND 17
[4] = Female rats, 0.1 mg/kg/day oral, PND 23
[5] = Female rats, 0.1 mg/kg/day oral, PND 35
[6] = Female rats, 0.3 mg/kg/day oral, PND 7
[7] = Female rats, 0.3 mg/kg/day oral, PND 12
[8] = Female rats, 0.3 mg/kg/day oral, PND 17
[9] = Female rats, 0.3 mg/kg/day oral, PND 23
[10] = Female rats, 0.3 mg/kg/day oral, PND 35
[11] = Female rats, 1.0 mg/kg/day oral, PND 7
[12] = Female rats, 1.0 mg/kg/day oral, PND 12
[13] = Female rats, 1.0 mg/kg/day oral, PND 17
[14] = Female rats, 1.0 mg/kg/day oral, PND 23
[15] = Female rats, 1.0 mg/kg/day oral, PND 35
[16] = Male rats, 0.1 mg/kg/day oral, PND 7
[17] = Male rats, 0.1 mg/kg/day oral, PND 12
[18] = Male rats, 0.1 mg/kg/day oral, PND 17
[19] = Male rats, 0.1 mg/kg/day oral, PND 23
[20] = Male rats, 0.1 mg/kg/day oral, PND 35
[21] = Male rats, 0.3 mg/kg/day oral, PND 7
[22] = Male rats, 0.3 mg/kg/day oral, PND 12
[23] = Male rats, 0.3 mg/kg/day oral, PND 17
[24] = Male rats, 0.3 mg/kg/day oral, PND 23
[25] = Male rats, 0.3 mg/kg/day oral, PND 35
[26] = Male rats, 1.0 mg/kg/day oral, PND 7
[27] = Male rats, 1.0 mg/kg/day oral, PND 12
[28] = Male rats, 1.0 mg/kg/day oral, PND 17
[29] = Male rats, 1.0 mg/kg/day oral, PND 23
[30] = Male rats, 1.0 mg/kg/day oral, PND 35

For `CCN1CCN(c2ccc(Nc3cc(N(C)C(=O)Nc4c(Cl)c(OC)cc(OC)c4Cl)ncn3)cc2)CC1` [infigratinib, 3-(2,6-Dichloro-3,5-dimethoxy-phenyl)-1-{6-[4-(4-ethyl-piperazin-1-yl)-phenylamino]-pyrimidin-4-yl}-1-methyl-urea], the Cmax/D [1] was 41.8 (ng/mL)/(mg/kg/day), the Tlast [1] was 24 h and the Cmax/D [2] was 34.0 (ng/mL)/(mg/kg/day). The Tlast [2] was 24 h, the RAUC [2] was 0.941 ratio and the Cmax/D [3] was 90.6 (ng/mL)/(mg/kg/day). For the same compound, the Tlast [3] was 24 h, the RAUC [3] was 0.839 ratio and the Cmax/D [4] was 7.8 (ng/mL)/(mg/kg/day). For the same compound, the Tlast [4] was 12 h, the RAUC [4] was 0.108 ratio and the Cmax/D [5] was 3.0 (ng/mL)/(mg/kg/day). The Tlast [5] was 7 h, the RAUC [5] was 0.0325 ratio and the Cmax/D [6] was 64.7 (ng/mL)/(mg/kg/day). The Tlast [6] was 24 h, the Cmax/D [7] was 49.7 (ng/mL)/(mg/kg/day) and the Tlast [7] was 24 h. For the same compound, the RAUC [7] was 0.751 ratio, the Cmax/D [8] was 60.2 (ng/mL)/(mg/kg/day) and the Tlast [8] was 24 h. For the same compound, the RAUC [8] was 0.548 ratio, the Cmax/D [9] was 7.49 (ng/mL)/(mg/kg/day) and the Tlast [9] was 24 h. The RAUC [9] was 0.103 ratio, the Cmax/D [10] was 2.2 (ng/mL)/(mg/kg/day) and the Tlast [10] was 12 h. The RAUC [10] was 0.0249 ratio, the Cmax/D [11] was 53.2 (ng/mL)/(mg/kg/day) and the Tlast [11] was 24 h. For the same compound, the Cmax/D [12] was 56.6 (ng/mL)/(mg/kg/day), the Tlast [12] was 24 h and the RAUC [12] was 1.15 ratio. For the same compound, the Cmax/D [13] was 41.2 (ng/mL)/(mg/kg/day), the Tlast [13] was 24 h and the RAUC [13] was 0.974 ratio. The Cmax/D [14] was 10.4 (ng/mL)/(mg/kg/day), the Tlast [14] was 24 h and the RAUC [14] was 0.141 ratio. For the same compound, the Cmax/D [15] was 4.04 (ng/mL)/(mg/kg/day), the Tlast [15] was 12 h and the RAUC [15] was 0.0566 ratio. The Cmax/D [16] was 32.1 (ng/mL)/(mg/kg/day), the Tlast [16] was 24 h and the Cmax/D [17] was 33.2 (ng/mL)/(mg/kg/day). For the same compound, the Tlast [17] was 24 h, the RAUC [17] was 1.24 ratio and the Cmax/D [18] was 29.9 (ng/mL)/(mg/kg/day). For the same compound, the Tlast [18] was 24 h, the RAUC [18] was 0.882 ratio and the Cmax/D [19] was 5.77 (ng/mL)/(mg/kg/day). The Tlast [19] was 12 h, the RAUC [19] was 0.12 ratio and the Cmax/D [20] was 3.07 (ng/mL)/(mg/kg/day). For the same compound, the Tlast [20] was 12 h, the RAUC [20] was 0.0613 ratio and the Cmax/D [21] was 38.8 (ng/mL)/(mg/kg/day). The Tlast [21] was 24 h, the Cmax/D [22] was 47.1 (ng/mL)/(mg/kg/day) and the Tlast [22] was 24 h. The RAUC [22] was 1.3 ratio, the Cmax/D [23] was 27.1 (ng/mL)/(mg/kg/day) and the Tlast [23] was 24 h. For the same compound, the RAUC [23] was 0.898 ratio, the Cmax/D [24] was 7.1 (ng/mL)/(mg/kg/day) and the Tlast [24] was 24 h. For the same compound, the RAUC [24] was 0.187 ratio, the Cmax/D [25] was 3.08 (ng/mL)/(mg/kg/day) and the Tlast [25] was 12 h. The RAUC [25] was 0.0524 ratio, the Cmax/D [26] was 37.3 (ng/mL)/(mg/kg/day) and the Tlast [26] was 24 h. For the same compound, the Cmax/D [27] was 68.8 (ng/mL)/(mg/kg/day), the Tlast [27] was 24 h and the RAUC [27] was 1.59 ratio. The Cmax/D [28] was 34.1 (ng/mL)/(mg/kg/day), the Tlast [28] was 24 h and the RAUC [28] was 0.944 ratio. The Cmax/D [29] was 11.2 (ng/mL)/(mg/kg/day), the Tlast [29] was 24 h and the RAUC [29] was 0.233 ratio. For the same compound, the Cmax/D [30] was 2.98 (ng/mL)/(mg/kg/day), the Tlast [30] was 12 h and the RAUC [30] was 0.0648 ratio. For the same compound, the AUC(0-t) [1] was 43 ng·h/mL, the AUC(0-t) [2] was 40.5 ng·h/mL and the AUC(0-t) [4] was 4.66 ng·h/mL.
